The test system of assay [1] is cynomolgus monkey corneal endothelial cells. Briefly: BrdU ELISA, concentration series, cynomolgus monkey corneal endothelial cells (Example 8). To be noted: concentration series per agent between 0.1 μM and 100 μM; 5000 cells/well; * p<0.01. The class given is cell-based. On the procedure: The medium was removed from a culture dish culturing cynomolgus monkey corneal endothelial cells ([…] phosphate buffer solution (Nacalai Tesque, 14249-95) heated to 37° C. in advance was added thereto and the cells were washed. This operation was repeated twice. After removing the phosphate buffer solution, 0.05% Trypsin-EDTA (Nacalai Tesque, 35554-64) was added and the cells were incubated for 10 minutes at 37° C. (5% CO2). The cells were then suspended in DMEM (Nacalai Tesque, 08456-94)+10% FBS (Biowest, S1820-500)+1% penicillin/streptomycin (P/S, Nacalai Tesque, 26252-94) and centrifuged for 3 minutes at 1200 rpm to collect the cells. A 96-well plate was treated with an FNC coating mix (50 ml ([…], catalog number: 0407). The monkey corneal endothelial cells (lot: 20120404-3L-P8) were seeded in the coated 96-well plate at a ratio of 5000 cells/well. The cells were cultured for 30 hours at 37° C. (5% CO2). After 30 hours, the medium was removed and changed to a serum free medium: DMEM+1% P/S to culture the cells for 18 hours. […] DMSO was added to the control. After 24 hours, a BrdU labeling reagent (Amersham Cell Proliferation Biotrak ELISA System, Version 2, GE Healthcare, catalog number: RPN250) was further added at a ratio of 1:1000 to the DMEM+10% FBS+1% P/S medium. […] DMSO was added to the control. After 24 hours, BrdU ELISA was carried out with Amersham Cell Proliferation Biotrak ELISA System, Version 2 (GE Healthcare, catalog number: RPN250). The absorbance at 450 nm was measured. *P<0.01, Dunnet's test, n=5. As in (1), the medium was removed from a culture dish culturing cynomolgus monkey corneal endothelial cells. A phosphate buffer solution heated to 37° C. in advance was added thereto and the cells were washed. This operation was repeated twice. After removing the phosphate buffer solution, 0.05% Trypsin-EDTA (Nacalai Tesque, 35554-64) was added and the cells were incubated for 10 minutes at 37° C. (5% CO2). The cells were then suspended in DMEM (Nacalai Tesque, 08456-94)+10% FBS (Biowest, S1820-500)+1% penicillin/streptomycin (Nacalai Tesque, catalog number: 26252-94) and centrifuged for 3 minutes at 1200 rpm to collect the cells. A 96-well plate was treated with an FNC coating mix (50 ml ([…], catalog number: 0407). Monkey corneal endothelial cells (lot: 20120404-3L-P8) were seeded in the coated 96-well plate at a ratio of 5000 cells/well. The cells were cultured for 30 hours at 37° C. (5% CO2). After 30 hours, the medium was removed and changed to a serum free medium: DMEM+1% P/S to culture the cells for 18 hours. After 18 hours, Semapimod HCl (MedKoo Biosciences, catalog number: 202590, lot number: SMC20120918) was added to the DMEM+10% FBS+1% P/S medium such that the final concentration dissolved with DMSO was 0.1, 0.3, 1, 3, or 10 μmol/l, and the cells were cultured for 24 hours. DMSO was added to the control. After 24 hours, a BrdU labeling reagent (Amersham Cell Proliferation Biotrak ELISA System, Version 2, GE Healthcare, catalog number: RPN250) was further added at a ratio of 1:1000 to the DMEM+10% FBS+1% P/S medium. Semapimod HCl was added such that the final concentration was 0.1, 0.3, 1, 3, or 10 μmol/l and the cells were cultured for 24 hours. DMSO was added to the control. After 24 hours, BrdU ELISA was carried out with Amersham Cell Proliferation Biotrak ELISA System, Version 2 (GE Healthcare, catalog number: RPN250). The absorbance at 450 nm was measured. […]
Background: Incorporation of labelled thymidine or its analogues reports DNA synthesis.

In assay [2] the test system is cultured monkey corneal endothelial cells. The assay can be described thus: UV-induced cell death of cultured monkey corneal endothelial cells (phase difference microscope). The class given is cell-based. To be noted: UV 100 J/m^2; 9 hours after irradiation; 10 μM SB203580, 3 μM BIRB796, 1 μM PH-797804, 3 μM VX-702, 3 μM LY2228820, 3 μM TAK-715. As to the method: 1×10^5 cultured monkey corneal endothelial cells were seeded on a 12-well plate coated with an FNC Coating Mix and cultured for about 5 days until reaching confluence under the condition of 5% CO2 at 37° C.
Medium: Dulbecco's Modified Eagle Medium (DMEM, Gibco, 12320-032), 10% FBS, 1% Penicillin-Streptomycin (nacalai tesque, 26252-94)
Each inhibitor was then added at the concentration in the above-described Table and the cells were incubated for 16 hours under the condition of 5% CO2 at 37° C. The solvent of each reagent, Dimethyl Sulfoxide, Sterile-filtered (nacalai tesque, 13408-64) MSO, was added to the Control group and the UV group. Gibco DMEM, 1% P/S (penicillin/streptomycin) was used as the medium.
The cellular supernatant was then removed and the cells were irradiated with UV (100 J/m^2). After irradiation, cells were again added to a medium containing each inhibitor and cultured for 9 hours. The cell form and apoptosis were observed under a phase difference microscope.

Turning to `CNC(=O)c1ccc(C)c(-n2c(C)cc(OCc3ccc(F)cc3F)c(Br)c2=O)c1` [PH-797804, 3-(3-bromo-4-((2,4-difluorobenzyl)oxy)-6-methyl-2-oxopyridine-1(2H)-yl)-N,4-dimethylbenzamide], the “BrdU uptake as a percentage with respect to the control (proliferation)” value (from here on “BrdU uptake as a percentage”) in assay [1] is given as “promotes proliferation”. The “Cellular disorders (cell death) induced by UV” value (from here on “Cellular disorders”) in assay [2] is on record as “suppressed”.

Consider `CC(C)(C)Cn1c(N)nc2ccc(-c3nc(C(C)(C)C)[nH]c3-c3ccc(F)cc3)nc21` [LY2228820, 5-(2-(tert-butyl)-5-(4-fluorophenyl)-1H-imidazole-4-yl)-3-neopentyl-3H-imidazo[4,5-b]pyridine-2-amine], for which the “BrdU uptake as a percentage” value in assay [1] is listed as “promotes proliferation”. Moreover, in assay [2], the “Cellular disorders” value is listed as “suppressed”.

Regarding `Cc1ccc(-n2nc(C(C)(C)C)cc2NC(=O)Nc2ccc(OCCN3CCOCC3)c3ccccc23)cc1` [BIRB796, N-[3-tert-butyl-1-(4-methylphenyl)pyrazole-5-yl]-N′-[4-(2-morpholinoethoxy)-1-naphthyl]urea], the “BrdU uptake as a percentage” value in assay [1] is reported as “promotes proliferation”. In addition, the “Cellular disorders” value in assay [2] is listed as “suppressed”.

For the compound `CCc1nc(-c2cccc(C)c2)c(-c2ccnc(NC(=O)c3ccccc3)c2)s1` [TAK-715, 2-benzamide-4-[2-ethyl-4-(3-methylphenyl)thiazole-5-yl]pyridine], the “BrdU uptake as a percentage” value in assay [1] is reported as “promotes proliferation”. Moreover, the “Cellular disorders” value in assay [2] is recorded as “suppressed”.

Regarding `C[S+]([O-])c1ccc(-c2nc(-c3ccncc3)c(-c3ccc(F)cc3)[nH]2)cc1` (stereo not shown) [SB203580, 4-(4-fluorophenyl)-2-(4-methylsulfinylphenyl)-5-(4-pyridyl)-1H-imidazole], the “BrdU uptake as a percentage” value in assay [1] is on record as “promotes proliferation”. The “Cellular disorders” value in assay [2] is reported as “suppressed”.

The values are drawn from patent publication US10813920B2, “Drug for treating corneal endothelium by promoting cell proliferation or inhibiting cell damage” (THE DOSHISHA, priority 2013, dated 2020).
